# Measurements published in ChEMBL document CHEMBL1201862, “PubChem BioAssay data set” (2004).
# Active and inactive are the calls of the source.
# Assays:
# cells [1] = type: functional, cell-based
# [2] = Counterscreen for AddAB inhibitors: absorbance-based bacterial cell-based high throughput dose response assay for inhibitors of bacterial viability. [Related pubchem assays (depositor defined):AID435030, AID449728, AID449731, AID488942, AID488955, AID488956]; type: functional
# Jurkat = test: SAR Analysis of small molecule inhibitors of T-cell specific antigen receptor-induced NF-kB activation in a Jurkat cell line using a luminescence assay - Set 2. [Related pubchem assays (depositor defined):AID435003, AID435012, AID465]; type: functional, cell-based; conditions: Homo sapiens
# cells [3] = type: functional, cell-based; remark: listed apart in the source
# HEK293 = test: SAR Analysis of small molecule inhibitors of T-cell specific antigen receptor-induced NF-kB activation in a HEK-293T cell line using a luminescence assay - Set 2. [Related pubchem assays (depositor defined):AID435003, AID435012, AID489026]; type: functional, cell-based; conditions: Homo sapiens
# [4] = NIH-3T3 fibroblast cytotoxicity, dose response, cytotoxicity control, cell-based, fluorescence, Alamar Blue, secondary assay (AID 2327); type: functional;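 note: NIH-3T3 mouse fibroblasts cultured with fluconazole at 8 µg/mL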
# Integrin alpha-4 = Integrin alpha-4 (Homo sapiens, UniProt P13612); test: VLA-4 integrin allosteric ligands, SAR follow-up, cell-based, LIBS antibody binding, flow cytometry (AID 488791); type: functional
# Sequence of Integrin alpha-4 (P13612 whole entry): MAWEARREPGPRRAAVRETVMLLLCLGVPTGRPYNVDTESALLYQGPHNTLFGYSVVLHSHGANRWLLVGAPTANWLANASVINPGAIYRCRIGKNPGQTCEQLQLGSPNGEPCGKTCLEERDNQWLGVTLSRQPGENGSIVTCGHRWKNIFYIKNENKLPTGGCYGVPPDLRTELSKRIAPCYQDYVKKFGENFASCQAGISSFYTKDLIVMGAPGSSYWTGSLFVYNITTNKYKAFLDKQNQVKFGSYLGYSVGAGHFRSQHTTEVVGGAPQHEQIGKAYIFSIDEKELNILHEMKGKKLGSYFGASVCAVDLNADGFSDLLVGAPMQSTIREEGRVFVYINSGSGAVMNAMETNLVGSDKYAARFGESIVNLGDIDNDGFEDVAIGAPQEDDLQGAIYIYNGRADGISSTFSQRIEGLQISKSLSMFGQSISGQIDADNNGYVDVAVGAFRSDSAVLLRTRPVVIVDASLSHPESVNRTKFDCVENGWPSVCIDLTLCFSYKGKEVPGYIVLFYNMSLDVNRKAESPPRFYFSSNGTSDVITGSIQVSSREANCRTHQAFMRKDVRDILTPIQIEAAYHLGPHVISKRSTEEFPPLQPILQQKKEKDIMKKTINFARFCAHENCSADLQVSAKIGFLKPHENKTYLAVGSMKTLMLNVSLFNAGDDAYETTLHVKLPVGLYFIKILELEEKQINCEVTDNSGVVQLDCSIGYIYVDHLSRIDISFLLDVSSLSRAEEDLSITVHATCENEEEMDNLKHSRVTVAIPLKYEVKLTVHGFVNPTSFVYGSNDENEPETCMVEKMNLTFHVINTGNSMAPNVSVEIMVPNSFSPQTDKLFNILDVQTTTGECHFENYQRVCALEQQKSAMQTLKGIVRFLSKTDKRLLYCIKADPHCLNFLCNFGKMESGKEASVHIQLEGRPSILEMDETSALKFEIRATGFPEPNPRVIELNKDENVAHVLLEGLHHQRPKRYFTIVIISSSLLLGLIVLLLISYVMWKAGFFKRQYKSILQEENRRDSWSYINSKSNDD
# [5] = growth suppression of PTEN-null colon cells, dose response, cell-based, HCT116 PTEN knockout (AID 1047); type: functional;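 note: HCT116 colon tumor cells with PTEN knocked out; cells exposed to compound for 60 hours before readout; potency for loss of cell viability measured by luminescence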
# [6] = target: G-protein coupled receptor 55 (Homo sapiens, UniProt Q9Y2T6); test: GPR55 agonists via beta-arrestin recruitment, primary screen, imaging, U2OS cells, beta-arrestin-GFP redistribution (AID 1961); type: functional
# Sequence of G-protein coupled receptor 55 (Q9Y2T6 whole entry): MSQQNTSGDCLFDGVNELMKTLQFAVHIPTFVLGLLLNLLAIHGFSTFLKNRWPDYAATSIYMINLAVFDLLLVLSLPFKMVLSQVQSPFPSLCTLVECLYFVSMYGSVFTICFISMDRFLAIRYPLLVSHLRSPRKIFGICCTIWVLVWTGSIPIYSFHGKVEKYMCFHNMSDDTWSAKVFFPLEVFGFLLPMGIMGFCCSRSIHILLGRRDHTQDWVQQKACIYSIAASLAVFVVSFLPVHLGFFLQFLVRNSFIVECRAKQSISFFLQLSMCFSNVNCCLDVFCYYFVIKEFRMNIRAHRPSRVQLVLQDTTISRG
# Caspase-7 = Caspase-7 (Homo sapiens, UniProt P55210); test: human caspase-7 inhibitors, dose response, selectivity assay for caspase-6 inhibitor project, biochemical, DEVD-R110 fluorescence, cherry-pick (AID 743295)
# Sequence of Caspase-7 (P55210 24-198 limits assumed): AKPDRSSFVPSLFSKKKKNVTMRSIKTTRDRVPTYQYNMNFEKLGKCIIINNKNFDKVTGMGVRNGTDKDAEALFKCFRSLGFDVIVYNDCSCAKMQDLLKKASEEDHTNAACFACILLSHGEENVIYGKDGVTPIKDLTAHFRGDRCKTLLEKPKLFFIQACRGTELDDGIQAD
# Sequence of Caspase-7 (P55210 207-303 limits assumed): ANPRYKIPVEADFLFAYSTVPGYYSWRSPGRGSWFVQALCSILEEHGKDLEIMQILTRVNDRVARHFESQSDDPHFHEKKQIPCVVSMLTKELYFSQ
# [7] = inhibitors of firefly luciferase expression or activity, dose response, H4 neuroglioma cells, luminescence (AID 1990); type: functional, cell-based
# [8] = target: Protein-tyrosine kinase 2-beta (Homo sapiens, UniProt Q14289);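 note: potency of inhibitors of PYK2 kinase phosphorylation of poly-GT substrate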
# Sequence of Protein-tyrosine kinase 2-beta (Q14289 whole entry): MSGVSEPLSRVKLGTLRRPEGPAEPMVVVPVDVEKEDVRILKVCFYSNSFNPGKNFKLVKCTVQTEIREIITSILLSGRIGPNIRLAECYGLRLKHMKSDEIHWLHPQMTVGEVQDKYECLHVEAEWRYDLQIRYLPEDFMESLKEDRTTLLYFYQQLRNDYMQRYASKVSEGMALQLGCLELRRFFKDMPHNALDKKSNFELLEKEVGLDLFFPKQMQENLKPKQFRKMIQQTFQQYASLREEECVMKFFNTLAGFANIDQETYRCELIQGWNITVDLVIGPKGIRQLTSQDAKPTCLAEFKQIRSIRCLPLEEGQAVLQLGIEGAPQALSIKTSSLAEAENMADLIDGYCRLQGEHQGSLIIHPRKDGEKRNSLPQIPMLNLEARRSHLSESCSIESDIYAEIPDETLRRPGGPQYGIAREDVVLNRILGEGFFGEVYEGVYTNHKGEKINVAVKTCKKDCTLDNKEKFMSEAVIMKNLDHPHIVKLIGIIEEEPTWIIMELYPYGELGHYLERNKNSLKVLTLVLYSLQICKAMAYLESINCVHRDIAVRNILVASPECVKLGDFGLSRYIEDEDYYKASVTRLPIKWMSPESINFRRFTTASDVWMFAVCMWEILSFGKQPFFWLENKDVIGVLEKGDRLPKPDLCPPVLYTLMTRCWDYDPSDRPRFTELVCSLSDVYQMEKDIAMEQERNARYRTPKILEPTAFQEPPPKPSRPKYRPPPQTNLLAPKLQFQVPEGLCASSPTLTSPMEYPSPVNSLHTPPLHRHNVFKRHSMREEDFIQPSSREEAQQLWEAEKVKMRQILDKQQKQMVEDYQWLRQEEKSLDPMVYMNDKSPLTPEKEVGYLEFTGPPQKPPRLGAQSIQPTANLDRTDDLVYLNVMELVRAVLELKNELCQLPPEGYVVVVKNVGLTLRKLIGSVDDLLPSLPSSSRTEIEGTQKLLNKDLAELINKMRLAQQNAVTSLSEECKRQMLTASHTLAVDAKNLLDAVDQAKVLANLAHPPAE
# [9] = target: Neuropeptide Y receptor type 2 (Homo sapiens, UniProt P49146); type: functional, cell-based;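 note: HEK293 cells expressing the receptor and a CNG channel; stimulus was NPY near EC95 followed by isoproterenol to raise cAMP; antagonist potency measured as restoring cAMP signal that NPY suppresses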
# Sequence of Neuropeptide Y receptor type 2 (P49146 whole entry): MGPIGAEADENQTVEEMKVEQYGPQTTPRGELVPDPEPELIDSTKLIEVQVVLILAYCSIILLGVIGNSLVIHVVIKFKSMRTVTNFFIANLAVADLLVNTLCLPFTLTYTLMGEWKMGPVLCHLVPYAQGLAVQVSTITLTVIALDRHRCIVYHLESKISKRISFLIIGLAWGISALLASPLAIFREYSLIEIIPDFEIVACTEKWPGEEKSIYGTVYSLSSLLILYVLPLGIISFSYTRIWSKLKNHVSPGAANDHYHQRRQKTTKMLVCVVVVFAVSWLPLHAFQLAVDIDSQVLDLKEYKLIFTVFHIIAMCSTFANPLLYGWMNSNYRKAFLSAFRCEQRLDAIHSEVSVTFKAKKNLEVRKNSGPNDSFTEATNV
# [10] = target: Peroxisome proliferator-activated receptor gamma/Nuclear receptor coactivator 2 (Homo sapiens, UniProt P37231); test: TR-FRET dose response biochemical High Throughput Screening assay for agonists of the steroid receptor coactivator 2 (SRC-2) recruitment by the peroxisome proliferator-activated receptor gamma (PPAR gamma): non-selective agonists. [Related pubchem assays: 1297, 1032 ]; type: functional
# [11] = target: Voltage-gated inwardly rectifying potassium channel KCNH2 (Homo sapiens, UniProt Q12809); test: hERG protection from proarrhythmic block, potency, dose response, cell-based, thallium flux (AID 2121); type: ADME
# Sequence of Voltage-gated inwardly rectifying potassium channel KCNH2 (Q12809 whole entry): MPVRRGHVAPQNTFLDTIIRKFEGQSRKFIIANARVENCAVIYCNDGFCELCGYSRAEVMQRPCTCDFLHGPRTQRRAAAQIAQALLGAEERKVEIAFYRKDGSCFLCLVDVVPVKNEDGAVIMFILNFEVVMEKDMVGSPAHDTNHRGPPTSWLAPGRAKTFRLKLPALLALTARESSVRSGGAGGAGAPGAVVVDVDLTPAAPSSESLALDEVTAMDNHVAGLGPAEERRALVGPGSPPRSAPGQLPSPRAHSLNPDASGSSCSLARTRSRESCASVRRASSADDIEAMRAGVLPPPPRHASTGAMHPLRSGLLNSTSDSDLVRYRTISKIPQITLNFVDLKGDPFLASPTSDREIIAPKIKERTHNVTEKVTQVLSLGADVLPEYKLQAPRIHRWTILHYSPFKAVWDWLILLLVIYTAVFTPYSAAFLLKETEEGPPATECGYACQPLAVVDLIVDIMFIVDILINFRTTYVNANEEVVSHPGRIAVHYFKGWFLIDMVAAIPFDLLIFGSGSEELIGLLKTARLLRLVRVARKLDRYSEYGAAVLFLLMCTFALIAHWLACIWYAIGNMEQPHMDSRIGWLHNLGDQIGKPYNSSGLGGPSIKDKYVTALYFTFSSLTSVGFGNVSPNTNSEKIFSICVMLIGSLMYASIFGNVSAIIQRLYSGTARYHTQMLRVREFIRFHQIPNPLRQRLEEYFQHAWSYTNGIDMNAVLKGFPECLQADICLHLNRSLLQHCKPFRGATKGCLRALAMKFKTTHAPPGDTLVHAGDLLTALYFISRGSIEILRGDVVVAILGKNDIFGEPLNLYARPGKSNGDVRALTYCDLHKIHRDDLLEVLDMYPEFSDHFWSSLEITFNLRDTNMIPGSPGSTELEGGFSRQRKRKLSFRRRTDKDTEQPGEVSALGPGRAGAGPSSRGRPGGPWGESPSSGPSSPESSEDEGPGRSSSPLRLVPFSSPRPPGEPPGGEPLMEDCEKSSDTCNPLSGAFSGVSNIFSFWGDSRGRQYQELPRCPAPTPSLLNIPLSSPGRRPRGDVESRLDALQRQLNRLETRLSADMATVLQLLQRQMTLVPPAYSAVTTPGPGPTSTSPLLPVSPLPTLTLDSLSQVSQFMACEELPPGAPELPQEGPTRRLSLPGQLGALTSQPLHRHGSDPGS
# [12] = target: Dual specificity tyrosine-phosphorylation-regulated kinase 1A (Rattus norvegicus, UniProt Q63470); type: biochemical, Homo sapiens
# Streptococcus = test: Group A Streptococcus viability loss, dose response, counter-screen for streptokinase expression inhibitor project, luminescence, BacTiterGlo (AID 1915); type: functional, organism-based;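 note: potency for reduction of bacterial viability or growth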
# [13] = Vero E6 cell cytotoxicity, dose response, cytotoxicity control for non-replicating M. tuberculosis project, secondary assay (AID 492998); type: functional, VeroE6; conditions: Vero C1008
# [14] = target: Neuropeptide Y receptor type 1 (Homo sapiens, UniProt P25929); type: functional;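 note: HEK293 cells with a CNG channel challenged with NPY then isoproterenol; potency as antagonist that reverses NPY suppression of cAMP signal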
# Sequence of Neuropeptide Y receptor type 1 (P25929 whole entry): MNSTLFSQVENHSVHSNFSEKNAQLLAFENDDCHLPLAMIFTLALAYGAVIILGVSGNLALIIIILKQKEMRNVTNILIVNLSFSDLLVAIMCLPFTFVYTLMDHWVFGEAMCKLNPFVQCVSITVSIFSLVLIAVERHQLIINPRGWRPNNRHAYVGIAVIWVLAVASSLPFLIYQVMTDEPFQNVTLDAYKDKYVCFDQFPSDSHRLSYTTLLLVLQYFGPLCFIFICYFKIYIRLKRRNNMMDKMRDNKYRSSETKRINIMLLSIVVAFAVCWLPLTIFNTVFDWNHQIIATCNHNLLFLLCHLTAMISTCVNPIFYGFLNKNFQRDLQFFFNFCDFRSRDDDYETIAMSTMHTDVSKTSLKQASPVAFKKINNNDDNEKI
# [15] = target: T1, Heat shock protein HSP 90-alpha (Homo sapiens, UniProt P07900); type: functional, organism-based
# [16] = target: Voltage-gated N-type calcium channel alpha-1B subunit/Amyloid beta A4 precursor protein-binding family A member 1 (Homo sapiens, UniProt Q00975+Q02410); type: protein assay
# [17] = target: Small ubiquitin-related modifier 1 (Homo sapiens, UniProt P63165); test: inhibitors of SUMO1 partner interactions, dose response, biochemical, FRET (AID 624383); type: functional; conditions: read-out: IC50_Mean
# Sequence of Small ubiquitin-related modifier 1 (P63165 whole entry): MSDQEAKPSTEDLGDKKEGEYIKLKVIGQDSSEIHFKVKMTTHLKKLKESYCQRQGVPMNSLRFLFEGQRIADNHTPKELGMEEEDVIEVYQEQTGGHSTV
# [18] = THP-1 cell cytotoxicity, dose response, cytotoxicity control for Vif-APOBEC3G degradation inhibitor project, THP-1 cells (AID 1117359); type: functional; conditions: Human immunodeficiency virus 1, THP-1
# [19] = target: T2, Rac GTPase-activating protein 1 (Homo sapiens, UniProt Q9H0H5); test: MgcRacGAP GTPase-activating activity inhibitors, confirmation, biochemical, ADP Hunter fluorescence, primary and confirmatory (AID 624330); type: functional
# T2 sequence (Q9H0H5 whole entry): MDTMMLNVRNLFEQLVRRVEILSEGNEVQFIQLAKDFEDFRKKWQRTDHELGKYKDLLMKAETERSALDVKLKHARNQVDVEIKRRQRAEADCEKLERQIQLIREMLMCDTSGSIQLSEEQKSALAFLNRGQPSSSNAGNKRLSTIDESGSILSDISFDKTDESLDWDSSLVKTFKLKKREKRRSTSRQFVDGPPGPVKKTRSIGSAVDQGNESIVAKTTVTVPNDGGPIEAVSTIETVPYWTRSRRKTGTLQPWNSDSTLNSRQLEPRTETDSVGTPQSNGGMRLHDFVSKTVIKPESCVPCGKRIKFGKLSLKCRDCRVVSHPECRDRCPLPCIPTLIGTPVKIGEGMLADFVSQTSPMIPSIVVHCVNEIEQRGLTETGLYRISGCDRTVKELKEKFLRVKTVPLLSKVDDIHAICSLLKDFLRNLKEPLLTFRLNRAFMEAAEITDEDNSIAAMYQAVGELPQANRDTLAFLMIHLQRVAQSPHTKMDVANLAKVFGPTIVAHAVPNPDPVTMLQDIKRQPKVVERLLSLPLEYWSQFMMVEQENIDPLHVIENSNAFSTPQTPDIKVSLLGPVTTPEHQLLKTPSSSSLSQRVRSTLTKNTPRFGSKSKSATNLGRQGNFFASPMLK
# [20] = target: T1, Heat shock protein HSP 90-alpha; test: Luminescence-based dose response biochemical high throughput screening assay for inhibitors of the Heat Shock Protein 90 (HSP90). [Related pubchem assays: 1831 (Summary AID.), 1846 (Confirmation screen.), 1789 (Primary screen.)]
# [21] = target: T3, Mitochondrial peptide methionine sulfoxide reductase (Bos taurus, UniProt P54149); type: functional;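 note: absorbance read-out, biochemical high-throughput dose-response screen for MsrA inhibitors, confirmatory; recombinant bovine MsrA coupled to E. coli TrxB with NADPH and selenocystamine; potency is for inhibitors of MsrA activity on DMSO substrate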
# T3 sequence (P54149 whole entry): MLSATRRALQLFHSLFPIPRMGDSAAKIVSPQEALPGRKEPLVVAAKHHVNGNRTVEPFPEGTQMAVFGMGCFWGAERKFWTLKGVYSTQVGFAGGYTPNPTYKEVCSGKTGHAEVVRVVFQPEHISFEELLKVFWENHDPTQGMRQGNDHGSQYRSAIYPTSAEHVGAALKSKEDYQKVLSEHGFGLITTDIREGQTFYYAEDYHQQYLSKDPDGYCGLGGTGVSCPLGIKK
structure (smiles),measurement,setting,value
CCCC(=O)NC(c1ccccc1OC)c1ccc2cccnc2c1O (stereo unspecified),EC50,cells [1],> 350 µM (not active)
same,IC50,[2],> 119 µM (inactive)
same,IC50,Jurkat,5.16 µM (active)
same,EC50,cells [3],7.86 µM (active)
same,IC50,HEK293,3.97 µM (active)
same,EC50,[4],28.7 µM (active)
COC(=O)[C@@H]1[C@@H](C(=O)OC)C2(c3ccccc3-c3ccccc32)N(c2ccc(Cl)cc2)N1C#N,EC50,Integrin alpha-4,> 49.2 µM (inactive)
same,EC50,[5],7.77 µM (active)
same,EC50,[6],> 32 µM (inactive)
COc1ccc(OC)c(Nc2cc3ccccc3c(O)n2)c1,AC50,Caspase-7,5.9 µM (active)
Nc1ccc2c(c1)C(=O)C(=O)c1ccccc1-2,EC50,[7],> 120 µM (not active)
same,IC50,[8],> 69.5 µM (not active)
same,IC50,[9],4.25 µM (active)
same,EC50,[10],12.1 µM (not active)
same,EC50,[11],1.38 µM (active)
same,AC50,[12],0.547 µM (active)
same,EC50,Streptococcus,4.95 µM (active)
same,CC50,[13],1.81 µM (active)
same,IC50,[14],4.54 µM (active)
Cc1ccc2nc(/C(C#N)=C\c3ccc([N+](=O)[O-])o3)[nH]c2c1,AC50,[15],< 0.195 µM (active)
COc1cc(-c2ccc(Nc3ccccc3C(=O)O)c(OC)c2)ccc1Nc1ccccc1C(=O)O,IC50,[16],7.6 µM (active)
same,IC50,[17],3.9 µM (active)
same,CC50,[18],> 40 µM (active)
same,IC50,[19],41.4 µM (active)
O=C(O)c1ccc(NC2=C/C(=N/S(=O)(=O)c3ccccc3)c3ccccc3C2=O)cc1,IC50,[20],0.967 µM (active)
same,IC50,[21],6.42 µM (active)
